From PubChem BioAssay (NCI)
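Results reflect a 48-hour exposure of cells in 96-well plates to compound at five concentrations. TGI: total growth inhibition.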 *1 amine or outer side, *2 acyl side, *3 side chain or, on linkers, in order; H or OH if unused. Where a SMILES comes first, the peptide text is derived from it. [ ]: non-standard residue; d: D form. The star is where a group is joined. X41 = CCC(=O)CC1CC(C)CC(C(=O)[*:2])N1[*:1]; X40 = CCCCCCCCC(C)C(=O)*; Aib = CC(C)(N)C(=O)O; X42 = CC(CN(C)CCO)N*

Experiments:
Assay in all cases: NCI tumour cell line growth inhibition, 48 h
[1] = tested on: BT-549 breast
[2] = tested on: HOP-92 NSCLC
[3] = tested on: NCI-H226 lung
[4] = tested on: NCI-H23 lung
[5] = tested on: UACC-257 melanoma
[6] = tested on: 786-0 renal
[7] = tested on: A549 NSCLC
[8] = tested on: ACHN renal
[9] = tested on: CAKI-1 renal
[10] = tested on: CCRF-CEM leukemia
[11] = tested on: COLO 205 colon
[12] = tested on: DU-145 prostate
[13] = tested on: EKVX NSCLC
[14] = tested on: HCT-116 colon
[15] = tested on: HCT-15 colon
[16] = tested on: HL-60(TB) leukemia
[17] = tested on: HOP-62 NSCLC
[18] = tested on: HS 578T breast
[19] = tested on: HT29 colon
[20] = tested on: IGROV1 ovarian
[21] = tested on: K-562 leukemia
[22] = tested on: KM12 colon
[23] = tested on: LOX IMVI melanoma
[24] = tested on: M14 melanoma
[25] = tested on: MALME-3M melanoma
[26] = tested on: MCF7 breast
[27] = tested on: MDA-MB-435
[28] = tested on: MOLT-4 leukemia
[29] = tested on: NCI-H460 lung
[30] = tested on: NCI-H522 lung
[31] = tested on: NCI/ADR-RES ovarian
[32] = tested on: OVCAR-3 ovarian
[33] = tested on: OVCAR-4 ovarian
[34] = tested on: OVCAR-5 ovarian
[35] = tested on: OVCAR-8 ovarian
[36] = tested on: PC-3 prostate
[37] = tested on: RPMI-8226 leukemia
[38] = tested on: SF-268 CNS
[39] = tested on: SF-295 CNS
[40] = tested on: SK-MEL-2 melanoma
[41] = tested on: SK-MEL-28 melanoma
[42] = tested on: SK-MEL-5 melanoma
[43] = tested on: SK-OV-3 ovarian
[44] = tested on: SN12C renal
[45] = tested on: SNB-19 CNS
[46] = tested on: SNB-75 CNS
[47] = tested on: SR leukemia
[48] = tested on: SW-620 colon
[49] = tested on: T-47D breast
[50] = tested on: TK-10 renal
[51] = tested on: U251 CNS
[52] = tested on: UACC-62 melanoma
[53] = tested on: UO-31 renal

## CCCCCCCCC(C)C(=O)N1CCCC1C(=O)N1C(CC(=O)CC)CC(C)CC1C(=O)NC(C)C(=O)NC(C)(C)C(=O)NC(C)(C)C(=O)NC(C(=O)NC(C)C(=O)NC(C)(C)C(=O)NC(C)(C)C(=O)NC(C)CN(C)CCO)C(C)CC (stereo not drawn) (X40-P[X41]A[Aib][Aib]IA[Aib][Aib]-X42; configuration not given here)
[1]
  TGI: 6.63 µM
[2]
  TGI: 0.0435 µM
[3]
  TGI: 1.22 µM
[4]
  TGI: 1.05 µM
[5]
  TGI: 2.5 µM

## CSCCC(NC(c1ccccc1)c1ccccc1)[P+](=O)O (stereo not drawn)
[6]
  TGI: > 100 µM
[7]
  TGI: > 100 µM
[8]
  TGI: > 100 µM
[1]
  TGI: > 100 µM
[9]
  TGI: > 100 µM
[10]
  TGI: > 100 µM
[11]
  TGI: > 100 µM
[12]
  TGI: > 100 µM
[13]
  TGI: > 100 µM
[14]
  TGI: > 100 µM
[15]
  TGI: > 100 µM
[16]
  TGI: > 100 µM
[17]
  TGI: > 100 µM
[2]
  TGI: > 100 µM
[18]
  TGI: > 100 µM
[19]
  TGI: > 100 µM
[20]
  TGI: > 100 µM
[21]
  TGI: > 100 µM
[22]
  TGI: > 100 µM
[23]
  TGI: > 100 µM
[24]
  TGI: > 100 µM
[25]
  TGI: > 100 µM
[26]
  TGI: > 100 µM
[27]
  TGI: > 100 µM
[28]
  TGI: > 100 µM
[3]
  TGI: > 100 µM
[4]
  TGI: > 100 µM
[29]
  TGI: > 100 µM
[30]
  TGI: > 100 µM
[31]
  TGI: > 100 µM
[32]
  TGI: > 100 µM
[33]
  TGI: > 100 µM
[34]
  TGI: > 100 µM
[35]
  TGI: > 100 µM
[36]
  TGI: > 100 µM
[37]
  TGI: > 100 µM
[38]
  TGI: > 100 µM
[39]
  TGI: > 100 µM
[40]
  TGI: > 100 µM
[41]
  TGI: > 100 µM
[42]
  TGI: > 100 µM
[43]
  TGI: > 100 µM
[44]
  TGI: > 100 µM
[45]
  TGI: > 100 µM
[46]
  TGI: > 100 µM
[47]
  TGI: > 100 µM
[48]
  TGI: > 100 µM
[49]
  TGI: > 100 µM
[50]
  TGI: > 100 µM
[51]
  TGI: > 100 µM
[5]
  TGI: > 100 µM
[52]
  TGI: > 100 µM
[53]
  TGI: > 100 µM
